Experimental data published in patent US12187728B2 (Raze Therapeutics, Inc., priority 2015, dated 2025).

Target: T1, Human MTHFD2 (Homo sapiens, UniProt P13995)
T1 construct: residues 36-350 in Uniport ID P13995; His6 (N); made in house; host or cells: E. coli
T1 sequence (P13995 36-350): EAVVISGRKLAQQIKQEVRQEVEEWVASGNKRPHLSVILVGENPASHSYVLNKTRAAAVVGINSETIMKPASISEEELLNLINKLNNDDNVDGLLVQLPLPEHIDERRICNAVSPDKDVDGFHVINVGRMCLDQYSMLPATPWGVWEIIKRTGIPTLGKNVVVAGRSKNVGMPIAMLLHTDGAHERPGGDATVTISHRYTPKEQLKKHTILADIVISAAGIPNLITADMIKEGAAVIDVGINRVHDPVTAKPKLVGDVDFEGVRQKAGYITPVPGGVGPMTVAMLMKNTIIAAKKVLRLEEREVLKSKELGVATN
Assay: MTHFD2 Activity Assay (dehydrogenase activity, diaphorase/resazurin coupled fluorescence)
Format: biochemical
Conditions: inhibitory activity (IC50 and/or binding constant); 0.2 nM MTHFD2, 11 concentrations
From the text: Human MTHFD2 (residues 36-350 in Uniport ID P13995) was expressed as an N-terminal His6 tagged protein and purified in E. coli using nickel capture followed by size-exclusion chromatography.
MTHFD2 dehydrogenase activity oxidizes methylene tetrahyrofolate to methenyl-tetrahydrofolate with the concomitant reduction of NAD to NADH. MTHFD2 dehydrogenase activity was followed by coupling the generation of NADH to diaphorase catalyzed […] of resazurin to fluorescent resorufin. Briefly, control (DMSO) or compound was incubated with 0.2 nM MTHFD2 for 15 minutes in 10.5 μl assay buffer containing 100 mM Hepes, pH 8.0, 5 mM MgCl2, 5 mM KH2PO4, 0.05% BSA, 0.01% Tween-20 in a 384 well Griener, low volume, black plate. 10 μl of substrate buffer containing 70 μM CH2-THF, 1 mM NAD^+, 100 μM Resazurin and 0.42 mg/ml diaphorase was then added to initiate the reaction and the reaction plate was incubated for 30 minutes. 5 μl of 250 mM EDTA was then added to each well to stop the reaction and MTHFD2 activity was quantified by measuring resorufin fluorescence emission at 598 nm following excitation at 525 nm. Activity in positive control wells containing the complete reaction mixture and DMSO alone was set to 100% while activity in negative control wells with the complete reaction mix without MTHFD2 was set to 0%. 11 concentrations of each compound were tested and the fluorescent data at each concentration was normalized to the positive and negative controls and represented as % inhibition. Median inhibitory concentration (IC50) was calculated by fitting % inhibition at each concentration to a 4 parameter logistic fit equation using Graphpad Prizm.
The compound numbers correspond to the compound numbers in Table A (i.e., the example numbers).

SMILES	IC50 [nM]
Cn1c(N[C@H]2CC[C@@H](O)C2)nc2c1c(=O)n(Cc1ccc3sccc3c1)c(=O)n2C (racemic) [Example 74, (±)-1-(1-benzothiophen-5-ylmethyl)-8-{[(cis)-3-hydroxycyclopentyl]amino}-3,7-dimethyl-2,3,6,7-tetrahydro-1H-purine-2,6-dione or (±)-1-(1-benzothiophen-5-ylmethyl)-8-{[(trans)-3-hydroxycyclopentyl]amino}-3,7-dimethyl-2,3,6,7-tetrahydro-1H-purine-2,6-dione]	10 to 1000
Cn1c(NC2CCCNC2=O)nc2c1c(=O)n(Cc1ccc(Cl)c(Cl)c1)c(=O)n2C (racemic) [Example 89, (±)-1-[(3,4-dichlorophenyl)methyl]-3,7-dimethyl-8-[(2-oxopiperidin-3-yl)amino]-2,3,6,7-tetrahydro-1H-purine-2,6-dione]	10 to 1000
Cn1c(N[C@H]2CCCC[C@@H]2O)nc2c1c(=O)n(Cc1ccc(Cl)c(Cl)c1)c(=O)n2C (racemic) [Example 91, (±)-1-[(3,4-dichlorophenyl)methyl]-8-{[(trans)-2-hydroxycyclohexyl]amino}-3,7-dimethyl-2,3,6,7-tetrahydro-1H-purine-2,6-dione±]	10 to 1000
Cn1c(NC2CCCC(C(=O)O)C2)nc2c1c(=O)n(Cc1ccc(Cl)c(Cl)c1)c(=O)n2C (racemic) [Example 114, (±)-3-(1-(3,4-dichlorobenzyl)-3,7-dimethyl-2,6-dioxo-2,3,6,7-tetrahydro-1H-purin-8-ylamino)cyclohexanecarboxylic acid]	10 to 1000
Cn1c(N[C@H]2CC[C@@H](O)C2)nc2c1c(=O)n(Cc1cc3ccccc3[nH]1)c(=O)n2C (racemic) [Example 155, (±)-1-((1H-indol-2-yl)methyl)-8-((cis)-3-hydroxycyclopentylamino)-3,7-dimethyl-1H-purine-2,6(3H,7H)-dione]	10 to 1000
Cn1c(NC2CCC(C)(O)C2)nc2c1c(=O)n(Cc1ccc(Cl)c(Cl)c1)c(=O)n2C (racemic) [Example 164, 1-[(3,4-dichlorophenyl)methyl]-8-[(3-hydroxy-3-methylcyclopentyl)amino]-3,7-dimethyl-2,3,6,7-tetrahydro-1H-purine-2,6-dione]	10 to 1000
Cn1c(N[C@H]2CC[C@@H](O)C2)nc2c1c(=O)n(Cc1ccc(C(F)(F)F)cc1)c(=O)n2C (racemic) [Example 171, (±)-8-((cis)-3-hydroxycyclopentylamino)-3,7-dimethyl-1-(4-(trifluoromethyl)benzyl)-1H-purine-2,6(3H,7H)-dione]	1000 to 5000
Cn1c(N[C@H]2CCC[C@@H](O)C2)nc2c1c(=O)n(Cc1ccc(Cl)c(Cl)c1)c(=O)n2C (racemic) [Example 173, (±)-1-(3,4-dichlorobenzyl)-8-((cis)-3-hydroxycyclohexylamino)-3,7-dimethyl-1H-purine-2,6(3H,7H)-dione]	10 to 1000
Cc1ccc2[nH]c(Cn3c(=O)c4c(nc(N[C@H]5CC[C@@H](O)C5)n4C)n(C)c3=O)cc2c1 (racemic) [Example 177, (±)-8-((cis)-3-hydroxycyclopentylamino)-3,7-dimethyl-1-((5-methyl-1H-indol-2-yl)methyl)-1H-purine-2,6(3H,7H)-dione]	10 to 1000
Cn1c(Cn2c(=O)c3c(nc(N[C@H]4CC[C@@H](O)C4)n3C)n(C)c2=O)cc2cc(Cl)ccc21 (racemic) [Example 178, (±)-1-((5-chloro-1-methyl-1H-indol-2-yl)methyl)-8-((cis)-3-hydroxycyclopentylamino)-3,7-dimethyl-1H-purine-2,6(3H,7H)-dione]	10 to 1000
Cn1c(N[C@H]2CC[C@@H](O)C2)nc2c1c(=O)n(Cc1cc(-c3ccccc3)n[nH]1)c(=O)n2C (racemic) [Example 180, (±)-8-((cis)-3-hydroxycyclopentylamino)-3,7-dimethyl-1-((3-phenyl-1H-pyrazol-5-yl)methyl)-1H-purine-2,6(3H,7H)-dione]	> 10000
Cn1c(NC2CCNC2=O)nc2c1c(=O)n(Cc1cc3ccccc3[nH]1)c(=O)n2C (racemic) [Example 222, (±)-1-((1H-indol-2-yl)methyl)-3,7-dimethyl-8-(2-oxopyrrolidin-3-ylamino)-1H-purine-2,6(3H,7H)-dione]	10 to 1000
Cn1c(N[C@@H]2CC[C@@H](O)C2)nc2c1c(=O)n(Cc1ccc(C#N)c(Cl)c1)c(=O)n2C (racemic) [Example 247, (±)-2-chloro-4-((8-((trans)-3-hydroxycyclopentylamino)-3,7-dimethyl-2,6-dioxo-2,3,6,7-tetrahydro-1H-purin-1-yl)methyl)benzonitrile]	1000 to 5000
Cn1c(NC2CCCC(CO)C2)nc2c1c(=O)n(Cc1ccc(Cl)c(Cl)c1)c(=O)n2C (racemic) [Example 254, (±)-1-(3,4-dichlorobenzyl)-8-(3-(hydroxymethyl)cyclohexylamino)-3,7-dimethyl-1H-purine-2,6(3H,7H)-dione]	10 to 1000

Results, then the molecule that gave them:

IC50 [nM]	SMILES
1000 to 5000	CN(C)C1CCCC(Nc2nc3c(c(=O)n(Cc4ccc(Cl)c(Cl)c4)c(=O)n3C)n2C)C1 (racemic) [Example 84, (±)-1-(3,4-dichlorobenzyl)-8-(((cis)-3-(dimethylamino)cyclohexyl)amino)-3,7-dimethyl-3,7-dihydro-1H-purine-2,6-dione or (±)-1-(3,4-dichlorobenzyl)-8-(((trans)-3-(dimethylamino)cyclohexyl)amino)-3,7-dimethyl-3,7-dihydro-1H-purine-2,6-dione]
10 to 1000	Cn1c(NC2CNC(=O)C2)nc2c1c(=O)n(Cc1ccc(Cl)c(Cl)c1)c(=O)n2C (racemic) [Example 88, (±)-1-[(3,4-dichlorophenyl)methyl]-3,7-dimethyl-8-[(5-oxopyrrolidin-3-yl)amino]-2,3,6,7-tetrahydro-1H-purine-2,6-dione]
1000 to 5000	Cn1c(N[C@@H]2CCCC[C@@H]2O)nc2c1c(=O)n(Cc1ccc(Cl)c(Cl)c1)c(=O)n2C (racemic) [Example 95, (±)-1-[(3,4-dichlorophenyl)methyl]-8-{[(cis)-2-hydroxycyclohexyl]amino}-3,7-dimethyl-2,3,6,7-tetrahydro-1H-purine-2,6-dione]
1000 to 5000	Cn1c(NC2CCCC(C(=O)O)C2)nc2c1c(=O)n(Cc1ccc(C(F)(F)F)cc1)c(=O)n2C (racemic) [Example 115, (±)-3-(3,7-dimethyl-2,6-dioxo-1-(4-(trifluoromethyl)benzyl)-2,3,6,7-tetrahydro-1H-purin-8-ylamino)cyclohexanecarboxylic acid]
1000 to 5000	Cn1c(N[C@H]2CC[C@@H](O)C2)nc2c1c(=O)n(Cc1ccc3cc[nH]c3c1)c(=O)n2C (racemic) [Example 163, (±)-1-((1H-indol-6-yl)methyl)-8-((cis)-3-hydroxycyclopentylamino)-3,7-dimethyl-1H-purine-2,6(3H,7H)-dione]
10 to 1000	Cn1c(N[C@@H]2CCC[C@@H](O)C2)nc2c1c(=O)n(Cc1ccc(Cl)c(Cl)c1)c(=O)n2C (racemic) [Example 172, (±)-1-(3,4-dichlorobenzyl)-8-((trans)-3-hydroxycyclohexylamino)-3,7-dimethyl-1H-purine-2,6(3H,7H)-dione]
10 to 1000	Cn1c(N[C@H]2CC[C@@H](O)C2)nc2c1c(=O)n(Cc1cc3cc(Cl)ccc3[nH]1)c(=O)n2C (racemic) [Example 175, (±)-1-((5-chloro-1H-indol-2-yl)methyl)-8-((cis)-3-hydroxycyclopentylamino)-3,7-dimethyl-1H-purine-2,6(3H,7H)-dione]
10 to 1000	Cn1c(Cn2c(=O)c3c(nc(N[C@H]4CC[C@@H](O)C4)n3C)n(C)c2=O)cc2ccccc21 (racemic) [Example 179, (±)-8-((cis)-3-hydroxycyclopentylamino)-3,7-dimethyl-1-((1-methyl-1H-indol-2-yl)methyl)-1H-purine-2,6(3H,7H)-dione]
10 to 1000	Cn1c(NC2CCNC(=O)C2)nc2c1c(=O)n(Cc1ccc(Cl)c(Cl)c1)c(=O)n2C (racemic) [Example 211, (±)-1-(3,4-dichlorobenzyl)-3,7-dimethyl-8-(2-oxopiperidin-4-ylamino)-1H-purine-2,6(3H,7H)-dione]
10 to 1000	Cn1c(NC2CNC(=O)C2)nc2c1c(=O)n(Cc1cc3ccccc3[nH]1)c(=O)n2C (racemic) [Example 214, (±)-1-((1H-indol-2-yl)methyl)-3,7-dimethyl-8-(5-oxopyrrolidin-3-ylamino)-1H-purine-2,6(3H,7H)-dione]
10 to 1000	Cn1c(NC2CCNC(=O)C2)nc2c1c(=O)n(Cc1cc3ccccc3[nH]1)c(=O)n2C (racemic) [Example 215, (±)-1-((1H-indol-2-yl)methyl)-3,7-dimethyl-8-(2-oxopiperidin-4-ylamino)-1H-purine-2,6(3H,7H)-dione]
